Assay results: publication PMC9448861 (Frontiers in Pharmacology, 2022)

Experiments:
Assay type in all cases: in vivo, C57BL/6J mice
[1] = Pharmacokinetics of ketamine and its metabolite hydroxynorketamine in mouse serum, hippocampus and frontal cortex (noncompartmental analysis, LC-MS/MS); conditions: for AUC0-∞ / Cmax / MRT / t0.5λz / tmax / λz: ketamine 10 mg/kg i.p.
[2] = tested on: mice subjected to CRS and CRS + ZnD; assay: Sucrose preference test (SPT) in mice subjected to CRS or CRS + ZnD
Experimental: (§1) All the compounds/drugs used in the study were obtained commercially, except for hyperforin (sodium salt), which was received as a gift from Dr. Wilmar Schwabe GmbH and Co (Karlsruhe, Germany). […] The control group received only 0.9% NaCl.
(§2) One week after acclimation, the mice were subjected to either a zinc-adequate feed (ZnA, 50 mg/kg) or zinc-deficient/low-Zn feed (ZnD, 3 mg/kg). Beginning from the second week, some ZnD mice were additionally subjected to 3 weeks of CRS. At the beginning of the 5th week, the mice were subjected to their appropriate treatment schedules or behavioral tests (see schemes in the figures).
(§3) CRS was performed in accordance with the procedures of [Ding et al. (2016]) with modifications. Mice from the stress groups were restrained in well-ventilated tubes with caps and holes for breathing (in a separate room from the control groups) for 3 h/day over 3 weeks. After each restraint period, the mice were transferred to housing cages. The control mice were housed at 6 mice per cage in an enriched environment and were handled every third day.
Seven days before the tests, the control and stressed mice were singly housed. The tests were carried out as follows. Two bottles (water and 1% sucrose solution) were placed in each cage 63 h before the test. Twenty-four hours later, the bottles were switched from right to left. Fifteen hours before the tests, the animals were deprived of food, water, and sucrose. The tests lasted 2 h, and sucrose preference was calculated as a percentage of the volume of sucrose intake over the total volume of fluid intake (water and sucrose solution). The SPT was performed during the light phase.

[3] = tested on: mice subjected to CRS and CRS + ZnD; assay: Tail suspension test (TST) in mice subjected to CRS or CRS + ZnD; conditions: three doses, 72 h after the last treatment
Experimental: as §1, §2, §3
The TST was performed as described in a previous work ([Pochwat et al., 2018]). Briefly, each mouse was suspended individually by the tail using adhesive tape (2 cm from the tail tip) affixed to a solid flat surface, and immobility times were measured for 6 min. […]

[4] = tested on: Zn levels in the Hp and FC; assay: Analysis of zinc (F-AAS) in the Hp and FC; conditions: CRS + ZnD mice; three doses
Experimental: as §1
The samples were mineralized before the experiments. Briefly, three independent test portions of 0.5 g each were weighed from each sample and transferred to Teflon vessels. Then, 2 mL of 30% H2O2 and 6 mL of 65% HNO3 (V) were added, and the mixture was subjected to wet mineralization in a closed system in a Magnum II mineralizer (ERTEC). Mineralization was carried out for 75 min with three cycles of magnetron operation, where the first 30 min was at 60% power, next 15 min was at 80% power, and the remaining 30 min was at 100% power. The mineralized solution thus obtained was heated on a hot plate at 120 °C for 60 min to remove the excess reagents. The samples were then quantitatively transferred to 10 mL flasks and used to determine the zinc content via the F–AAS method (adsorption and emission technique). An atomic absorption spectrometer (iCE 3500, Thermo Scientific, UK) was used to measure the Zn content; each sample was analyzed independently thrice, and the obtained results are presented as mean value ± standard error of mean (SEM).

N[C@@]1(c2ccccc2Cl)CCC[C@@H](O)C1=O [Hydroxynorketamine, (2R,6R;2S,6S)-hydroxynorketamine]
AUC0-∞ ([1]; frontal cortex, CRS + ZnD mice): 148.57 µg·min/g
Cmax ([1]; frontal cortex, CRS + ZnD mice): 1838.33 ng/g
MRT ([1]; frontal cortex, CRS + ZnD mice): 1.137 h
t0.5λz ([1]; frontal cortex, CRS + ZnD mice): 52.49 min
tmax ([1]; frontal cortex, CRS + ZnD mice): 0.167 h
λz ([1]; frontal cortex, CRS + ZnD mice): 0.013 min⁻¹
AUC0-∞ ([1]; frontal cortex, CRS mice): 154.18 µg·min/g
Cmax ([1]; frontal cortex, CRS mice): 2020.00 ng/g
MRT ([1]; frontal cortex, CRS mice): 1.212 h
t0.5λz ([1]; frontal cortex, CRS mice): 59.38 min
tmax ([1]; frontal cortex, CRS mice): 0.167 h
λz ([1]; frontal cortex, CRS mice): 0.012 min⁻¹
AUC0-∞ ([1]; frontal cortex, Control mice): 171.66 µg·min/g
Cmax ([1]; frontal cortex, Control mice): 1920.83 ng/g
MRT ([1]; frontal cortex, Control mice): 1.245 h
t0.5λz ([1]; frontal cortex, Control mice): 50.01 min
tmax ([1]; frontal cortex, Control mice): 0.167 h
λz ([1]; frontal cortex, Control mice): 0.014 min⁻¹
AUC0-∞ ([1]; hippocampus, CRS + ZnD mice): 114.29 µg·min/g
Cmax ([1]; hippocampus, CRS + ZnD mice): 1540.00 ng/g
MRT ([1]; hippocampus, CRS + ZnD mice): 1.172 h
t0.5λz ([1]; hippocampus, CRS + ZnD mice): 54.06 min
tmax ([1]; hippocampus, CRS + ZnD mice): 0.167 h
λz ([1]; hippocampus, CRS + ZnD mice): 0.013 min⁻¹
AUC0-∞ ([1]; hippocampus, CRS mice): 121.64 µg·min/g
Cmax ([1]; hippocampus, CRS mice): 1536.83 ng/g
MRT ([1]; hippocampus, CRS mice): 1.213 h
t0.5λz ([1]; hippocampus, CRS mice): 54.52 min
tmax ([1]; hippocampus, CRS mice): 0.167 h
λz ([1]; hippocampus, CRS mice): 0.013 min⁻¹
AUC0-∞ ([1]; hippocampus, Control mice): 137.36 µg·min/g
Cmax ([1]; hippocampus, Control mice): 1591.33 ng/g
MRT ([1]; hippocampus, Control mice): 1.349 h
t0.5λz ([1]; hippocampus, Control mice): 58.88 min
tmax ([1]; hippocampus, Control mice): 0.167 h
λz ([1]; hippocampus, Control mice): 0.012 min⁻¹
tissue-to-serum ratios for the metabolite as share of the values observed for the parent compound ([1]; in the FC): about 80%
tissue-to-serum ratios for the metabolite as share of the values observed for the parent compound ([1]; in the serum and Hp): about 40%
Cmax ([1]; serum, CRS + ZnD mice): 1726.00 ng/mL
MRT ([1]; serum, CRS + ZnD mice): 1.22 h
t0.5λz ([1]; serum, CRS + ZnD mice): 56.28 min
tmax ([1]; serum, CRS + ZnD mice): 0.167 h
λz ([1]; serum, CRS + ZnD mice): 0.013 min⁻¹
Cmax ([1]; serum, CRS mice): 1269.00 ng/mL
MRT ([1]; serum, CRS mice): 1.351 h
t0.5λz ([1]; serum, CRS mice): 59.11 min
tmax ([1]; serum, CRS mice): 0.167 h
λz ([1]; serum, CRS mice): 0.012 min⁻¹
Cmax ([1]; serum, Control mice): 1152.71 ng/mL
MRT ([1]; serum, Control mice): 1.462 h
t0.5λz ([1]; serum, Control mice): 62.33 min
tmax ([1]; serum, Control mice): 1 h
λz ([1]; serum, Control mice): 0.011 min⁻¹
metabolite-to-parent Cmax ratio ([1]; serum, control and study groups): ~1

CN(C)CCCN1c2ccccc2CCc2ccccc21 [IMI, imipramine]
sucrose preference in the SPT ([2]; CRS + ZnD mice, 10 mg/kg chronically (14 days), SPT 24 h after the last treatment): the same was not observed
sucrose preference in the SPT ([2]; CRS mice, 10 mg/kg chronically (14 days), SPT 24 h after the last treatment): restored sucrose preference

C[C@@H](CN1CCC(Cc2ccccc2)CC1)[C@@H](O)c1ccc(O)cc1 [Ro, Ro 25–6981]
sucrose preference in the SPT ([2]; CRS + ZnD mice, three doses (ketamine 10 mg/kg, Ro 10 mg/kg, Hyp 2.5 mg/kg + Lan 10 mg/kg), 24 h after the last treatment): failed to restore sucrose preference
sucrose preference in the SPT ([2]; CRS mice, three doses (ketamine 10 mg/kg, Ro 10 mg/kg, Hyp 2.5 mg/kg + Lan 10 mg/kg), 24 h after the last treatment): did not show any statistically significant antidepressant-like activities
immobility time in the TST [3]: ineffective
Zn levels in the Hp and FC [4]: reduced the Zn levels
